In patent US20230054407A1, “OPTICAL BIOPSY STAIN PANELS AND METHODS OF USE” (ARIZONA BOARD OF REGENTS ON BEHALF OF THE UNIVERSITY OF …, priority 2020, published 2023):
Blank lines part the entries; values can stand above or below the compound they belong to.

How the values were obtained:
[1] = In vitro fluorescence emission spectra and compatibility of nucleic acid and protein/cytoplasm dyes; format: physicochemical; conditions: for source of the resultant fluorescence emission signal of the mixture: Mitoxantrone mixed with Phloxine B at 100:1 molar ratio
Experimental: Additional incompatibility results from overlapping of the component peak emissions.
Daunorubicin (1 μM), Fluorescein (1 nM) and the combination of the two were excited at 375 nm, with resultant fluorescence emission.
With 405 nm excitation, Proflavine at 0.25 μM, Rose Bengal at 10 μM, and the combination result in roughly the same order of magnitude peaks resulting from their respective fluorescence.
FIGS. 8A-8F show emission spectra of various drug dye candidates. FIGS. 8A-8D show Mitoxantrone as a Hematoxylin-alternative candidate at 10 μM, with Phloxine B at 0.1 μM as an Eosin-alternative candidate drug-dye, and a combination of the two excited at different wavelengths: (FIG. 8A) 375 nm, (FIG. 8B) 405 nm, (FIG. 80) 455 nm, and (FIG. 8D) 488 nm. […] Additionally, there was overlap of emission spectra (FIG. 9) and the combination of certain DNA and protein dyes decreased the emission intensity relative to the same concentration of the component dye alone (FIG. 9 and FIG. 10).
The stain panels listed below use a combination of nucleus dyes and protein/cytoplasm dyes that have been optimized for their compatibility.

[2] = tested on: bovine lung tissue; experiment: Topical drug-dye staining of ex vivo bovine lung tissue imaged with confocal microscopy; conditions: for localization of drug-dye: ex vivo bovine lung tissue, qualitatively at the concentrations of FIGS. 2A-2D; for staining pattern: single dye applied topically to ex vivo bovine lung tissue, confocal microscopy
Text: Image field is 635.5 μm tall×wide. Inset is the structure of Proflavine.
Image field is 635.5 μm tall×wide. […]
Imaging was with confocal microscopy, with a bovine lung sample thickness of 10 μm, and an image field of 635.5 μm^2.
Imaging was with confocal microscopy settings at 488 nm excitation after topical application to the bovine lung specimen. Image field is 635.5 μm^2 at 10 μm thickness.
The dyes were pipetted in situ upon bovine tissue ex vivo and examined under confocal microscopy with a 488 nm laser with 10 μm optical thickness and imaged fields being 635.5 μm^2.
Referring to FIG. 1, 50 μl at 20 μM of Proflavine was topically applied directly to ex vivo bovine lung tissue in situ and imaged immediately with confocal microscopy. […] Likewise, Fluorescein, Phenol Red, Phloxine B, and Rose Bengal were each added to ex vivo bovine lung tissue and imaged under confocal microscopy (see FIGS. 2A-2I). […] This combination was then added topically to bovine lung tissue and imaged using confocal microscopy (FIG. 3). […]

[3] = tested on: human breast cancer metastasized to the lung; experiment: Staining of human breast cancer metastasized to the lung with Rose Bengal and Proflavine; conditions: Rose Bengal and Proflavine combined, concentrations similar to FIG. 6A

- Approximate peak fluorescence [1]: ~425 nm
SMILES: Nc1c(/N=N/c2ccc(-c3ccc(/N=N/c4cc(S(=O)(=O)O)c5ccccc5c4N)cc3)cc2)cc(S(=O)(=O)O)c2ccccc12 [Congo Red]

SMILES: COc1cccc2c1C(=O)c1c(O)c3c(c(O)c1C2=O)C[C@@](O)(C(C)=O)C[C@@H]3O[C@H]1C[C@H](N)[C@H](O)[C@H](C)O1 [Daunorubicin]
- change of fluorescence emission peak with increasing concentrations of Phloxine B ([1]; 488 nm excitation, peak around 590 nm): progressive decrease of fluorescence emission

- Approximate peak fluorescence [1]: ~695 nm
SMILES: CN(C)c1ccc2nc3ccc(=[N+](C)C)cc-3sc2c1 [Methylene Blue]

SMILES: O=C1c2c(O)ccc(O)c2C(=O)c2c(NCCNCCO)ccc(NCCNCCO)c21 [Mitoxantrone]
- Approximate peak fluorescence [1]: ~685 nm
- concentration dependence of fluorescence ([1]; 455 nm excitation): concentration-dependent fluorescence
- source of the resultant fluorescence emission signal of the mixture ([1]; 375 nm excitation): primarily Mitoxantrone

SMILES: O=C([O-])c1c(Cl)c(Cl)c(Cl)c(Cl)c1-c1c2cc(Br)c(=O)c(Br)c-2oc2c(Br)c([O-])c(Br)cc12.[Na+].[Na+] [Phloxine B]
- localization of drug-dye [2]: appeared to localize to cell cytoplasm in addition to the connective tissue fibers
- staining pattern [2]: variable staining of the proteinaceous connective tissue and cellular cytoplasm, granules or vesicles
- Approximate peak fluorescence [1]: ~550 nm
- source of the resultant fluorescence emission signal of the mixture ([1]; 488 nm excitation): nearly all the fluorescence emission signal from Phloxine B

- Approximate peak fluorescence [1]: ~508 nm
SMILES: Nc1ccc2cc3ccc(N)cc3nc2c1 [Proflavine]
- staining pattern [2]: staining like those typical of a fluorescent DNA dye
- structure outlined by the stain [3]: nucleus

SMILES: O=C([O-])c1c(Cl)c(Cl)c(Cl)c(Cl)c1-c1c2cc(I)c(=O)c(I)c-2oc2c(I)c([O-])c(I)cc12.[Na+].[Na+] [Rose Bengal]
- localization of drug-dye [2]: appeared to localize to cell cytoplasm in addition to the connective tissue fibers
- staining pattern [2]: variable staining of the proteinaceous connective tissue and cellular cytoplasm, granules or vesicles
- structure outlined by the stain [3]: proteins
- Approximate peak fluorescence [1]: ~565 nm
